The subject of experiment [1] is acute myeloid leukemia cell line, HL60. In words: Apoptosis induction by Annexin V PI double staining, HL60. The format is cell-based, human. Conditions: vardenafil 5 μM, EGCG 5 μM, 96 hours. On the procedure: (§1) A propidium iodide (PI) staining solution was prepared by suspending PI (Sigma Corporation) in PBS at a concentration of 50 μg/mL and was used in investigation of the anti-cancer activity of a combination of EGCG and vardenafil by Annexin V PI double staining. The PBS used was prepared by dissolving 8.0 g of NaCl, 0.2 g of KCl, 1.15 g of Na2HPO4, and 0.2 g of KH2PO4 in 1 L of ultrapure water, followed by autoclave sterilization. The Annexin V Binding Buffer used was prepared with 10 mM HEPES, 140 mM NaCl, and 2.5 mM CaCl2 (Wako Pure Chemical Industries, Ltd.) to be pH 7.4, followed by filter sterilization.
(§2) Cell lines, U266 and HL60, adjusted to be 5×10^4 cells/mL (U266) and 1×10^4 cells/mL (HL60), respectively, in an RPMI 1640 medium supplemented with 1% FCS were seeded in a 96-well plate. […]
(§3) The plate was returned to the incubator immediately after the addition of EGCG, followed by culturing for 96 hours. […] The supernatant was removed, and the cells were suspended in an Annexin V Binding uffer, and the number of the cells was counted with a hemocytometer. […] Subsequently, 400 μL of an Annexin V Binding Buffer was added thereto from above, and the cells were counted with a flow cytometer, FACS Caliber (Becton, Dickinson and Company). After compensation, the Annexin V Alexa Fluor 488 Conjugate was measured at FL 1, and the cells deemed to be positive were determined as apoptotic cells. […]

The subject of the next experiment is TLR 4. The experiment is described as follows: TLR4 expression in RAW 264.7 by Western blotting. The settings on record: vardenafil 5 μM, EGCG 10 μM added after 3 hours, 24 hours, untreated = 100. The format is cell-based, mouse. On the procedure:
A mouse macrophage cell line, RAW 264.7, was seeded in a 5-mL dish at 1×10^5 cells/mL and was pre-cultured in a DMEM medium supplemented with 1% FCS for 24 hours. Subsequently, vardenafil was added thereto at a concentration of 5 μM. After 3 hours, EGCG was added thereto at a concentration of 0 μM or 10 μM. After 24 hours, the cells were collected, and the expressions of Toll-like receptor (TLR) 2 and TLR 4 were measured by Western blotting.
For orientation: Immunoblotting shows a protein as a band on a membrane.

Experiment [2] concerns human multiple myeloma cell line, U266. The experiment is described as follows: Apoptosis induction by Annexin V PI double staining, U266. Format: cell-based. The settings on record: vardenafil 5 μM, EGCG 5 μM, 96 hours. On the procedure: as §1, §2, §3
[3] abbreviates: anti-67LR antibody MLuc5 20 μg/mL.

The text below walks through data of patent US20160000750A1, “COMBINATION OF EGCG OR METHYLATED EGCG AND A PDE INHIBITOR” (KYUSHU UNIVERSITY, NATIONAL UNIVERSITY CORPORATION, priority 2010, published 2016).

For the substance (−)-epigallocatechin-3-O-gallate [EGCG], the “apoptosis-inducing activity (apoptotic cell ratio)” value in experiment [1] (Annexin V PI double staining) and in experiment [2] (Annexin V PI double staining) was “apoptosis was induced” in each case. Further, the “apoptosis-inducing activity under treatment with anti-67LR antibody” value in experiment [1] (setting [3]) and in experiment [2] (setting [3]) was “completely cancelled” in each case. Further, the “TLR4 expression level(%)” value with TLR 4 is given as 57%.
